Results taken from ChEMBL document CHEMBL4265875, “A comprehensive review on Aurora kinase: Small molecule inhibitors and clinical trial studies” (Eur J Med Chem, 2017).
One block for each compound: values may come before it.

Assays:
HCT-116 [1] = assay: Antitumor activity against human HCT116 cells xenografted in mouse assessed as inhibition of tumor growth at 15 mg/kg; type: functional; details: read-out: TGI
HCT-116 [2] = assay: Antitumor activity against human HCT116 cells xenografted in mouse assessed as inhibition of tumor growth at 20 mg/kg; type: functional; details: read-out: TGI
[3] = Half life in tumor of mouse xenografted with human HCT116 cells at 15 to 20 mg/kg; type: ADME, organism-based, Neoplasm
HL-60 = assay: Antitumor activity against human HL60 cells xenografted in rat assessed as inhibition of tumor growth at 25 mg/kg, iv bid; type: functional; details: HL-60, iv, read-out: TGI
[4] = Growth inhibition of in human myeloma cells; type: functional, cell-based
[5] = Inhibition of Xenopus laevis aurora B (60 to 361 residues)/INCENP
HCC1143 = assay: Antiproliferation activity against human HCC1143 cells assessed as inhibition of cell proliferation; type: functional, cell-based
MCF7 = assay: Antiproliferation activity against human MCF7 cells assessed as inhibition of cell proliferation; type: functional, cell-based
HCC1806 = assay: Antiproliferation activity against human HCC1806 cells assessed as inhibition of cell proliferation; type: functional, cell-based
AU565 = assay: Antiproliferation activity against human AU565 cells assessed as inhibition of cell proliferation; type: functional, cell-based
CAL-85-1 = assay: Antiproliferation activity against human CAL851 cells assessed as inhibition of cell proliferation; type: functional, cell-based
[6] = Plasma concentration in F344/N Jcl-rnu rat xenografted with luciferase expressing human HeLa cells at 16 mg/kg, po BID for 2 days; type: ADME, organism-based
[7] = Plasma concentration in F344/N Jcl-rnu rat xenografted with luciferase expressing human HeLa cells at 32 mg/kg, po BID for 2 days; type: ADME, organism-based
HCT-116 [8] = assay: Antitumor activity against human HCT116 cells xenografted in SCID mouse assessed as reduction in tumor bulk at 15 mg/kg, po bid for 12 days relative to untreated control; type: functional
HCT-116 [9] = assay: Antitumor activity against human HCT116 cells xenografted in SCID mouse assessed as reduction in tumor bulk at 30 mg/kg, po bid for 12 days relative to untreated control; type: functional
SW48 [10] = assay: Antitumor activity against human SW48 cells xenografted in nude rat assessed as reduction in tumor growth at 15 mg/kg, po administered twice daily for 2 days per week measured on day 10 relative to untreated control; type: functional
SW48 [11] = assay: Antitumor activity against human SW48 cells xenografted in nude rat assessed as reduction in tumor growth at 45 mg/kg, po administered twice daily for 2 days per week measured on day 10 relative to untreated control; type: functional
SW48 [12] = assay: Antitumor activity against human SW48 cells xenografted in nude rat assessed as reduction in tumor growth at 15 mg/kg, po administered twice daily for 2 days per week for 3 weeks and measured on day 27 relative to untreated control; type: functional
SW48 [13] = assay: Antitumor activity against human SW48 cells xenografted in nude rat assessed as reduction in tumor growth at 45 mg/kg, po administered twice daily for 2 days per week for 3 weeks and measured on day 27 relative to untreated control; type: functional
PC-3 [14] = assay: Antitumor activity against human PC3 cells xenografted in nude mouse assessed as inhibition of tumor growth at 10 mg/kg, po qd; type: functional; details: PC-3, po, read-out: TGI
PC-3 [15] = assay: Antitumor activity against human PC3 cells xenografted in nude mouse assessed as inhibition of tumor growth at 30 mg/kg, po qd; type: functional; details: PC-3, po, read-out: TGI
Aurora kinase B [16] = molecular target: T1, Aurora kinase B (Homo sapiens, UniProt Q96GD4); assay: Inhibition of full-length His-tagged recombinant aurora B (unknown origin) expressed in insect cells using biotinylated LRRWSLG substrate by scintillation proximity assay
T1 sequence (Q96GD4 whole entry): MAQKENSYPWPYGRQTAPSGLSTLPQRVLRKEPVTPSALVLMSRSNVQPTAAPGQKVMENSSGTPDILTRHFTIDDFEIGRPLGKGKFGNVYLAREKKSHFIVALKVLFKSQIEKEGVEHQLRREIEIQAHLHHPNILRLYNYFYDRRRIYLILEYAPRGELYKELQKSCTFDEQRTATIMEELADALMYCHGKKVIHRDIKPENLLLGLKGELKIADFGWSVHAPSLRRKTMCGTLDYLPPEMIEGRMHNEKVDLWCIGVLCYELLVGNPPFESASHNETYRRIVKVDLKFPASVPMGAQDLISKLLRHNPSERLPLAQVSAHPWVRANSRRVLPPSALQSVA

Aurora kinase B [17] = molecular target: T1, Aurora kinase B; assay: Inhibition of aurora B in human MDA-MB-231 cells assessed as reduction in enzyme autophosphorylation incubated for 4 hrs by high-content immunofluorescence imaging; type: cell-based
Aurora kinase B [18] = molecular target: T1, Aurora kinase B; assay: Inhibition of aurora B in human MDA-MB-231 cells assessed as reduction in phosphorylation of histone H3 on Ser10 incubated for 4 hrs by high-content immunofluorescence imaging; type: cell-based
HCT-116 [19] = assay: Antitumor activity against human HCT116 cells xenografted in mouse assessed as inhibition of tumor growth at 20 mg/kg, po qd for 10 days; type: functional; details: HCT-116, po, 240 h, read-out: TGI
HCT-116 [20] = assay: Antitumor activity against human HCT116 cells xenografted in mouse assessed as inhibition of tumor growth at 15 to 60 mg/kg, po; type: functional
[21] = molecular target: T2, Aurora kinase B/Inner centromere protein (Homo sapiens, UniProt Q96GD4); assay: Inhibition of Aurora B/INCENP (unknown origin) assessed as affinity constant pre-incubated for 1 hr followed by FL-PKAtide substrate and ATP addition; type: protein-complex assay
T2 sequence (Q96GD4 whole entry): as above
T2 sequence (Q9NQS7 whole entry, further chain): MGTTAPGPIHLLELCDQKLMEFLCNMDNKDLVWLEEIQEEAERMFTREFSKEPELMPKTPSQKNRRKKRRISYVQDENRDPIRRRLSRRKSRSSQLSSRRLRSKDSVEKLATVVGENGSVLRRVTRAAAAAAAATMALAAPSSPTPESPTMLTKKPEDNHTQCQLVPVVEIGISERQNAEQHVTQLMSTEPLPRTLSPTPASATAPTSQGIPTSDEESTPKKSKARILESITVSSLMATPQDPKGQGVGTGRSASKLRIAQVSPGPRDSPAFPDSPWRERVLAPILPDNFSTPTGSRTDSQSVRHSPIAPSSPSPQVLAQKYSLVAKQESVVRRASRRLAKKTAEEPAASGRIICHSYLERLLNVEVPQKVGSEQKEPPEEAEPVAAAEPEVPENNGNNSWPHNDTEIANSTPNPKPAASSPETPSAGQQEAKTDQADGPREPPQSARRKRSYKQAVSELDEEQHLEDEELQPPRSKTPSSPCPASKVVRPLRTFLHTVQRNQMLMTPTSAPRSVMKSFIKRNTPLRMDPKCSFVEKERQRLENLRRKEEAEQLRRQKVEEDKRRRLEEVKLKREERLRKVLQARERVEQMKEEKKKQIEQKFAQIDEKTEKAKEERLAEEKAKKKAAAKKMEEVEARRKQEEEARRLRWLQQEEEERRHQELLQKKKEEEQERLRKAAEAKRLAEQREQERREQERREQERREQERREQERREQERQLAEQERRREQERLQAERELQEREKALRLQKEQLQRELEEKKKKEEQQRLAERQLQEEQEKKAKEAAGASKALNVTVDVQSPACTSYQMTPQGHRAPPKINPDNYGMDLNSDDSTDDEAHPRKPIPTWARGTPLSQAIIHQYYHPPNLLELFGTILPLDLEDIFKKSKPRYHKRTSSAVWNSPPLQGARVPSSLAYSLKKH

[22] = molecular target: Aurora kinase B/Inner centromere protein (Homo sapiens) (UniProt Q96GD4+Q9NQS7); assay: Inhibition of Aurora B/INCENP (unknown origin) assessed as inhibitor-enzyme complex half life pre-incubated for 1 hr followed by FL-PKAtide substrate and ATP addition; type: protein-complex assay
[23] = molecular target: T2, Aurora kinase B/Inner centromere protein; assay: Inhibition of Aurora B/INCENP (unknown origin) pre-incubated for 1 hr followed by FL-PKAtide substrate and ATP addition; type: protein-complex assay

half-life [3]: 2.5 h
Structure (SMILES): O=C(Nc1c[nH]nc1-c1nc2ccc(CN3CCOCC3)cc2[nH]1)NC1CC1 [AT-9283]
inhibition in vivo at 15 mg/kg (HCT-116 [1]): 67% | inhibition in vivo at 20 mg/kg (HCT-116 [2]): 76%

Structure (SMILES): CO[C@@H](C(=O)N1Cc2[nH]nc(NC(=O)c3ccc(N4CCN(C)CC4)cc3)c2C1)c1ccccc1 [DANUSERTIB]
inhibition in vivo at 25 mg/kg (HL-60): 75%

Structure (SMILES): Cc1cc(Nc2cc(N3CCN(C)CC3)nc(/C=C/c3ccccc3)n2)n[nH]1 [ENMD-2076]
IC50 [4]: 2990 to 7060 nM

IC50 [5]: 250 nM
Structure (SMILES): CCS(=O)(=O)Nc1ccc2c(c1)/C(=C(/Nc1ccc(CN3CCCCC3)cc1)c1ccccc1)C(=O)N2 [HESPERADIN]

Structure (SMILES): O=C(O)[C@]1(Cc2cccc(Nc3nccs3)n2)CC[C@@H](Oc2cccc(Cl)c2F)CC1 [MK-5108]
IC50 (HCC1143): 420 nM | IC50 (MCF7): 520 nM | IC50 (HCC1806): 560 nM | IC50 (AU565): 450 nM | IC50 (CAL-85-1): 740 nM | concentration at 48 h [6]: 1.7 µM | concentration at 48 h [7]: 4.4 µM | T/C (HCT-116 [8]): 10% | T/C (HCT-116 [9]): 6% | T/C (SW48 [10]): 35% | T/C (SW48 [11]): 7% | T/C (SW48 [12]): 58% | T/C (SW48 [13]): 32%

Structure (SMILES): O=C(O)c1ccc(Nc2ncc3c(n2)-c2ccc(Cl)cc2C(c2c(F)cccc2F)=NC3)cc1 [MLN-8054]
inhibition in vivo at 10 mg/kg (PC-3 [14]): 76% | inhibition in vivo at 30 mg/kg (PC-3 [15]): 84%

IC50 (Aurora kinase B [16]): 5 nM | IC50 (Aurora kinase B [17]): 11 nM | IC50 (Aurora kinase B [18]): 50 nM
Structure (SMILES): CC(=O)NCC(=O)N1[C@@H]2CC[C@H]1c1ccc(Nc3ncc(C(F)(F)F)c(NC4CCC4)n3)cc12 [PF-03814735]
inhibition in vivo at 20 mg/kg (HCT-116 [19]): ≤ 50%

Structure (SMILES): CCc1cccc(CC)c1NC(=O)N1Cc2[nH]nc(NC(=O)c3ccc(N4CCN(C)CC4)cc3)c2C1 [PHA-680632]
TGI (HCT-116 [20]): 70%

Ki [21]: 0.02 nM | T1/2 [22]: 15.3 h | IC50 [23]: 15 nM
Structure (SMILES): CCS(=O)(=O)c1cccc(-c2cc(C(=O)NC3CCN(C)CC3)c(C)c3[nH]c4ncc(C)cc4c23)c1 [TAK-901]
